Test results as given in BindingDB's records for PubMed 8391122 (Merck Sharp & Dohme Research Laboratories, 1993).

Key:
[1] = target: T1, Gamma-aminobutyric acid receptor subunit alpha-5 (Homo sapiens, UniProt P31644)
T1 sequence (P31644 whole entry): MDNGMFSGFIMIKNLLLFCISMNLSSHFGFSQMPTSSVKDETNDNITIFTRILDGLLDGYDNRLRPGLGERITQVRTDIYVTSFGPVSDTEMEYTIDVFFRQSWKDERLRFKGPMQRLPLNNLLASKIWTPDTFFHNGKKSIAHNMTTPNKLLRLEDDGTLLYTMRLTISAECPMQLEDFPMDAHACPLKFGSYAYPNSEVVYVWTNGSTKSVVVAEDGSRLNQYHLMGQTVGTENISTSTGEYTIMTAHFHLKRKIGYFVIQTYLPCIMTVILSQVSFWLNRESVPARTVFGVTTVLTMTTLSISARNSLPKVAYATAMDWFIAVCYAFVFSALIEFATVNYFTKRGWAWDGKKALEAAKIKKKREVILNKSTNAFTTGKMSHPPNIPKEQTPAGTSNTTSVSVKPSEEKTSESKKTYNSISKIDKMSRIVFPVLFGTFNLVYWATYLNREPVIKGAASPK

[2] = target: T2, Gamma-aminobutyric acid receptor subunit alpha-2 (Homo sapiens, UniProt P47869)
T2 sequence (P47869 whole entry): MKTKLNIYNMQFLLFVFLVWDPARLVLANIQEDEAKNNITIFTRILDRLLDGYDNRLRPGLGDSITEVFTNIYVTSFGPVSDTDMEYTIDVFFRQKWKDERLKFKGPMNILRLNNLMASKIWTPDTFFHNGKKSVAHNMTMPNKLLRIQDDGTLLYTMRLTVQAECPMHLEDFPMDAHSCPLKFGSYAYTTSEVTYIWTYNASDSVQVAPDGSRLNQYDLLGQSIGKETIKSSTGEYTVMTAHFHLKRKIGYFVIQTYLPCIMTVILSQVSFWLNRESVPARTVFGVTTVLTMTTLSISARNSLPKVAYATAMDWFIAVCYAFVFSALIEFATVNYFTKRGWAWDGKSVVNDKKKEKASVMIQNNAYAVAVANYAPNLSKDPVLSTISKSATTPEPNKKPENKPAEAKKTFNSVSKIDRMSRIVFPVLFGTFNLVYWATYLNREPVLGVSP

[3] = target: T3, Gamma-aminobutyric acid receptor subunit alpha-3 (Homo sapiens, UniProt P34903)
T3 sequence (P34903 whole entry): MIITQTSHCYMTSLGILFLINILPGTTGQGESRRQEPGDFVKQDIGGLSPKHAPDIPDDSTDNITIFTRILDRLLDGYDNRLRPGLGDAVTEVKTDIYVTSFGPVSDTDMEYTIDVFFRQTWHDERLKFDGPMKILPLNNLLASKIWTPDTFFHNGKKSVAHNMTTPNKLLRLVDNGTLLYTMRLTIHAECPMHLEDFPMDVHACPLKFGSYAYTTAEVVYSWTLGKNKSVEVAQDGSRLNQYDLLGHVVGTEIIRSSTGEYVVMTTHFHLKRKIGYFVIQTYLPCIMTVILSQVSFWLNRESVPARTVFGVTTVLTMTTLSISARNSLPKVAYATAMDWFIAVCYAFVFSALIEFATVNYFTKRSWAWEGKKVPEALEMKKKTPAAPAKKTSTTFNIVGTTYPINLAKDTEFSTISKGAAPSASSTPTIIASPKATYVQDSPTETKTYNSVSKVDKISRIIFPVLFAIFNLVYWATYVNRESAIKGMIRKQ

[4] = target: T4, Gamma-aminobutyric acid receptor subunit alpha-1 (Homo sapiens, UniProt P14867)
T4 sequence (P14867 whole entry): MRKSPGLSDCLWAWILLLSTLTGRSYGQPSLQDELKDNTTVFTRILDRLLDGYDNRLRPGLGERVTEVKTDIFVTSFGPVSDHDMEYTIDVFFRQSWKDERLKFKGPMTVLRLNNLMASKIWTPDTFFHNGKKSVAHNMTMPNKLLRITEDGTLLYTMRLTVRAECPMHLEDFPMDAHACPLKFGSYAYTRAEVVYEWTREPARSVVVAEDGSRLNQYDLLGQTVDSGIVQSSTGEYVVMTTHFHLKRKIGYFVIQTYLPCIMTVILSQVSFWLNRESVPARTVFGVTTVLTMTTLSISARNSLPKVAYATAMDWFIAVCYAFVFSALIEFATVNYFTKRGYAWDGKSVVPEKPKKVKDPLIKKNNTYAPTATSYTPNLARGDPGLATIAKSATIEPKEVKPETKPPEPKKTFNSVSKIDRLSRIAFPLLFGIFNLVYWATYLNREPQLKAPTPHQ

Compound | Ki [1] [nM] | Ki [2] [nM] | Ki [3] [nM] | Ki [4] [nM]
CC(C)(C)OC(=O)c1ncn2c1C1CCCN1C(=O)c1c(Br)cccc1-2 (stereo not given) [8-Bromo-7-oxo-3b,4,5,6-tetrahydro-7H-2,6a,11b-triaza-benzo[g]cyclopenta[e]azulene-3-carboxylic acid tert-butyl ester] | 2.4 | 1.2 | 1.3 | 1.2
Cc1ccc(-c2nc3ccc(C)cn3c2CC(=O)N(C)C)cc1 [Ambien] | > 10000 |  |  | 
COCc1c(C(=O)OC(C)C)ncc2[nH]c3ccc(OCc4ccccc4)cc3c12 | 8.4 | 4.4 | 7.1 | 
Cc1nnc2n1-c1ccc(Cl)cc1C(c1ccccc1Cl)=NC2 [Halcion] |  |  | 3 | 
CC(C)c1nc(-c2ncn3c2CN(C)C(=O)c2c(Cl)cccc2-3)no1 [FG 8205] | 6.4 | 3.7 | 6.4 | 2.3
Cc1nnc2ccc(-c3cccc(C(F)(F)F)c3)nn12 | 1150 | 2900 | 3140 | 290
CCOC(=O)c1ncn2c1CN(C)C(=O)c1cc(N=[N+]=[N-])ccc1-2 [RO-154513] | 0.7 | 10.4 | 7.8 | 10
COC(=O)c1cc2c(cn1)[nH]c1ccccc12 | 76.4 | 6.5 | 9.2 | 2.2
